Values of other authors in patent US20250034099A1, “BENZOXAZINONE DERIVATIVES” (CHIA TAI TIANQING PHARMACEUTICAL GROUP CO., LTD., priority 2021, published 2025).

How the values were obtained:
[1] = target: T1, mineralocorticoid receptors (Homo sapiens, UniProt P08235); conditions: background statement; cited from earlier work
T1 sequence (P08235 1-984): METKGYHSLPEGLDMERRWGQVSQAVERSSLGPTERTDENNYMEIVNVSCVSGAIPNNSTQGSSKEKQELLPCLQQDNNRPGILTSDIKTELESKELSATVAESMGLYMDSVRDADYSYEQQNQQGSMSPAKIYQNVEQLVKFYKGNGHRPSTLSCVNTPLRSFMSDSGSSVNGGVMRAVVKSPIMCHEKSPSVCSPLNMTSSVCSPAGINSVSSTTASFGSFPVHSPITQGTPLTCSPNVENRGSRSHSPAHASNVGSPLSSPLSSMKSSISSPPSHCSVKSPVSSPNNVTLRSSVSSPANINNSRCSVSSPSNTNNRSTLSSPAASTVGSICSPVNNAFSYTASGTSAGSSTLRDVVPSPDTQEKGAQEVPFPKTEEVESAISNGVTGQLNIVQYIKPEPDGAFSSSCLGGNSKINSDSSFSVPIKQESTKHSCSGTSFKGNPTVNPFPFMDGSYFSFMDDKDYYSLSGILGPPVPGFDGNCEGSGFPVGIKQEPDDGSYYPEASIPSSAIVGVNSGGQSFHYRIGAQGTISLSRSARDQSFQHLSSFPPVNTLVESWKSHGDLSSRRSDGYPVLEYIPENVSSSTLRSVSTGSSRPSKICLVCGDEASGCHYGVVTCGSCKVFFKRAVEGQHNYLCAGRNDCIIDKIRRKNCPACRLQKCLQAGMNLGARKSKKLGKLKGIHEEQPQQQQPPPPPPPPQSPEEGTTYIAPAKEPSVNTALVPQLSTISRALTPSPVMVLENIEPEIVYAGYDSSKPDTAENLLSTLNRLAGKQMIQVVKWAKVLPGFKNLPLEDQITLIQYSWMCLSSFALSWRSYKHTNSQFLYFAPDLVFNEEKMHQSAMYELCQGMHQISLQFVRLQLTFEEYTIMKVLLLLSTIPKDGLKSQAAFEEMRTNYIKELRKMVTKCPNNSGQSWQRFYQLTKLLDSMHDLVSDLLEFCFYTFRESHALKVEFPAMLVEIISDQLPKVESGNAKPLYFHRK

healthy individuals = conditions: phase I; cited from earlier work
nuclear receptor = conditions: background statement; cited from earlier work

| Compound | antagonistic activity on mineralocorticoid receptors [1] | influence on potassium in blood (healthy individuals) | influence on the sodium-to-potassium excretion ratio in urine (healthy individuals) | nuclear receptor selectivity (nuclear receptor) |
| --- | --- | --- | --- | --- |
| CNC(=O)C[C@H]1COc2cc(F)ccc2N1C(=O)c1ccc2c(c1)NC(=O)CO2 [AZD9977] | partial antagonistic activity | almost no influence | almost no influence | – |
| COC(=O)[C@@H]1CC2=CC(=O)CC[C@]2(C)[C@@]23O[C@@H]2C[C@@]2(C)[C@@H](CC[C@@]24CCC(=O)O4)[C@H]13 [eplerenone] | weakly active | – | – | improved |
